One compound from paper PMC8501045, “Addressing MRSA infection and antibacterial resistance with peptoid polymers” (Nature Communications, 2021) can be followed below.

In one experiment the test system is S. haemolyticus 0202. Nature of the experiment: Mouse peritonitis model, survival test, S. haemolyticus. Conditions: i.p. 20 mg/kg, 7 days. In kind it is in vivo. As for the experimental part: (§1) This infection model was conducted according to the previously reported method with slight modification. Female ICR mice (21–24 g) were used for MRSA-infected peritonitis model. Mice were infected by intraperitoneal administration of 0.2 mL of S. aureus USA300 LAC in saline (7.5 × 10^8 CFU/mL) supplemented with 5% mucin. […] Once the infected mice died, peritoneal lavage was performed by injecting 3.0 mL of saline into the peritoneal cavity and massaging the abdomen. Subsequently, the abdomen was opened and peritoneal fluid was recovered from the abdominal cavity for analysis. Blood samples were collected through cardiac puncture for analysis of CFU/mL. Then, different organs including the heart, liver, spleen, lung, and kidney were removed and homogenized in 0.1% TX-100 solution. The homogenate was serially diluted for plating on LB agar. After incubation at 37 °C for 14 h, the number of colonies on the plate was counted to calculate the bacteria burden. Surviving mice were euthanized at 48 h after infection. The blood, peritoneal fluid, and organs were collected for the determination of bacterial colonies. […] For the pretreatment group, mice were sacrificed and tissues were harvested to determine the CFU at 1 h post infection. […]

A further experiment deals with S. aureus USA300 LAC. As to the kind of experiment: Mouse full-thickness wound infection model, MRSA. It counts as in vivo. The conditions noted are these: 1.56 mg/mL topical. The protocol:
This infection model was conducted according to the previously reported method with slight modification. Female balb/c mice (20–21 g) were used in the full-thickness wound model caused by MRSA. Prior to surgery, mice were anesthetized with an intraperitoneal injection of sodium pentobarbital at a dose of 75 mg/kg. The dorsal hair was shaved, and the skin was rinsed with 75% alcohol three times. The 6-mm-diameter full-thickness wounds were punctured on either side of the back using a biopsy punch. An aliquot of 10 µL S. aureus USA300 LAC suspension (1.25 × 10^5 CFU/mL) was added to wound site. The wound site was covered by Tegaderm dressing (3 M, St Paul, MN) to prevent contamination. […] The treatments were applied every 4 h for a total of three times. After the last treatment for 4 h, mice were euthanized with an overdose of sodium pentobarbital. The wound sites were excised, weighed, and homogenized in PBS containing 0.1% TX-100. Then the homogenate was serially diluted for plating on LB agar. After incubation at 37 °C for 14 h, the number of colonies on the plate was counted to calculate the bacteria burden of wounds.

In the next experiment the test system is S. epidermidis 9397. Nature of the experiment: Mouse peritonitis model, survival test, S. epidermidis. In kind it is in vivo. The conditions noted are these: i.p. 20 mg/kg, 7 days. As for the experimental part: as §1
Experiment [1] concerns S. aureus USA300 biofilm formation. Nature of the experiment: Inhibition study on biofilm formation. It counts as cell-based, Staphylococcus aureus. The protocol:
The plate was incubated at 37 °C for 24 h, and then the culture medium was removed, washed with PBS once, followed by adding 100 µL MTT solution (0.5 mg/mL) into the corresponding well. After further incubation at 37 °C for 4 h in the dark, the MTT solution was removed. An aliquot of 100 μL DMSO was added to each well to solubilize the purple solid and then the OD value was collected at 570 nm on a microplate reader. Wells containing inoculum and without antibacterial agents were used as the positive control; wells containing only MH medium were used as the blank. The percentage of surviving cells within biofilm was calculated from4 %cellviability=A570polymer-A570blank/A570control-A570blank×100
The test was independently repeated at least three times.

Another experiment concerns S. aureus ATCC6538. As to the kind of experiment: Bacterial killing kinetics. It counts as cell-based, Staphylococcus aureus. The conditions noted are these: after 4 h of treatment.

`CN[C@H](CC(C)C)C(=O)N[C@H]1C(=O)N[C@@H](CC(N)=O)C(=O)N[C@H]2C(=O)N[C@H]3C(=O)N[C@H](C(=O)N[C@H](C(=O)O)c4cc(O)cc(O)c4-c4cc3ccc4O)[C@H](O)c3ccc(c(Cl)c3)Oc3cc2cc(c3O[C@@H]2O[C@H](CO)[C@@H](O)[C@H](O)[C@H]2O[C@H]2C[C@](C)(N)[C@H](O)[C@H](C)O2)Oc2ccc(cc2Cl)[C@H]1O` [Vancomycin]: the “survival of the mice” value in the experiment on S. haemolyticus 0202 amounted to 100%. For the same compound, the “reduction in the bacterial burden on the wound compared with the saline group” value with S. aureus USA300 LAC was ~ 1.2 log. In addition, the mice survived in the experiment on S. epidermidis 9397 is reported as 4/6. Further, in experiment [1], the “concentration required to inhibit the formation of S. aureus biofilm” value is 2 × MIC. The “reduction of the bacteria” value in the experiment with S. aureus ATCC6538 is “about 0.3 log”.
